According to US20200190062A1, “HETEROCYCLIC COMPOUND AND PHARMACEUTICAL COMPOSITION COMPRISING SAME” (BEYONDBIO INC., priority 2015, published 2020):
Like-named read-outs stand apart in the source and are kept apart here.

Tests used:
[1] = tested on: HCT116; test: Inhibition of cancer cell proliferation (MTT); assay type: cell-based, human
[2] = tested on: T98G; test: Inhibition of cancer cell proliferation (MTT); assay type: cell-based, human
Summary of the method: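 Plate 3000 cells/well and let them adhere for 16 h. Add compound (0.004, 0.013, 0.04, 0.12, 0.37, 1.1, 3.3, 10 uM; 0.08% DMSO) and culture for 72 h. Add MTT for 2 h, dissolve formazan in DMSO, read at 535 nm, and fit GI50.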

[3] = tested on: SH-SY5Y; test: Inhibition of cancer cell proliferation (MTT); assay type: cell-based, human
Summary of the method: (§1)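 Absorbance at 535 nm of DMSO-dissolved formazan (2 h MTT) gives viability versus 0.08% DMSO-treated cells, and GI50 is derived from eight concentrations between 0.004 and 10 uM. Exposure lasts 72 h at 37 °C, 5% CO2, using 3000 cells/well in 10% FBS medium ([…] for NCI-H23, otherwise DMEM).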

[4] = tested on: U-87MG; test: Inhibition of cancer cell proliferation (MTT); assay type: cell-based, human
Summary of the method: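 Growth inhibition over 72 h was measured in attached cultures (3000 per well) with 0.08% DMSO as the control. Viable cells were detected with a 2 h MTT step, and the concentration giving 50% inhibition was taken as GI50.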

[5] = tested on: SK-N-SH; test: Inhibition of cancer cell proliferation (MTT); assay type: cell-based, human
Summary of the method: as §1

[6] = target: T1, CDK1/cyclinB (Homo sapiens, UniProt P06493); test: Inhibition of CDK enzyme activity (ADP-Glo kinase assay); assay type: biochemical; conditions: 10 uM ATP, histone H1 substrate
T1 construct: purchased Merck Millipore
T1 sequence (P06493 whole entry): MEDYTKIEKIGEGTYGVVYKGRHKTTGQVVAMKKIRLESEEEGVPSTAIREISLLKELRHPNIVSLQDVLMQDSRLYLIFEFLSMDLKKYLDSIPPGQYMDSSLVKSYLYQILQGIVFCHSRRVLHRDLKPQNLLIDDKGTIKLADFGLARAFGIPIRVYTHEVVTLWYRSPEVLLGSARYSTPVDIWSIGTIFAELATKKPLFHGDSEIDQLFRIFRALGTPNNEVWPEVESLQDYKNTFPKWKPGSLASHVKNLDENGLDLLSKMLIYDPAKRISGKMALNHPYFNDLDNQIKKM
T1 sequence (P14635 whole entry partner): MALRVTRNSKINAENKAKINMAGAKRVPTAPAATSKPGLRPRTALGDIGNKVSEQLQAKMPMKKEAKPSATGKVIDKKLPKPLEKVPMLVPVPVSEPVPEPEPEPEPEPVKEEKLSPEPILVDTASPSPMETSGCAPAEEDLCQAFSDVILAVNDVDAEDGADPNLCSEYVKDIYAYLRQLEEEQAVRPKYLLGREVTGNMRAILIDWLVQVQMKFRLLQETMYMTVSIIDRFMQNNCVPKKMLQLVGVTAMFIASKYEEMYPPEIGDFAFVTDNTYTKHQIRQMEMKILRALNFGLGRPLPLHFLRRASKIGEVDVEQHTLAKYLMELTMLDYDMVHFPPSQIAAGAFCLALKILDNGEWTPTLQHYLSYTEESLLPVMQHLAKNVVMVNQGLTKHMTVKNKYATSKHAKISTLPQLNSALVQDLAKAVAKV
Method: (§2) Test compounds were prepared by dissolving the compounds obtained in the above Examples in dimethylsulfoxide (DMSO) at a concentration of 10 mM. The test compounds were diluted to 200 nM, 50 nM, […], 3.13 nM, 0.78 nM, and 0.2 nM and used in an enzyme reaction.
(§3) CDK enzyme reaction was conducted in a buffer containing 50 mM Tris-HCl (pH 7.5), 10 mM MgCl2, 1 mM EGTA, 1 mM EDTA, and 2 mM DTT. CDK1/cyclinB, CDK2/cylcinE, CDK5/p25, and CDK6/cyclinD3 enzymes commercially available from Merck Millipore were used for CDK1, CDK2, CDK5, and CDK6 enzymes, respectively, and CDK4/cyclinD1 enzyme commercially available from Signalchem (US) was used for CDK4. For CDK1, a reaction proceeded by adding 10 nM CDK1/cyclinB and 0.125 mg/ml histone H1 (Merck Millipore) substrate to the buffer and then adding 10 uM ATP thereto. For CDK2, a reaction was proceeded by adding 10 nM CDK2/cyclinE and 0.125 mg/ml histone H1 substrate to the buffer and then adding 10 uM ATP thereto. For CDK5, a reaction was proceeded by adding 10 nM CDK5/p25 and 0.125 mg/ml histone H1 substrate to the buffer and then adding 10 uM ATP thereto. For CDK4, a reaction was proceeded by adding 20 nM CDK4/cyclinD1 and 0.125 mg/ml Rb protein (Merck Millipore) to the buffer and then adding 10 uM ATP thereto. For CDK6, a reaction was proceeded by adding 50 nM CDK6/cyclinD3 and 0.125 mg/ml histone H1 substrate to the buffer and then adding 10 uM ATP thereto. Each enzyme reaction was incubated at 30° C. for 60 min. Then, the amount of ADP produced was measured using Victor X4 instrument (Perkin Elmer) after generating luminescence using ADP-Glo kinase assay kit (Promega, US). An inhibition effect on each enzyme was represented as a percentage of the luminescence value in the presence of the test compounds relative to the luminescence value without the test compounds. IC50 (nM) is the concentration of the compound to inhibit 50% of the enzyme activity.

[7] = target: T2, CDK5/p25 (Homo sapiens, UniProt Q00535); test: as above; assay type: biochemical; conditions: 10 uM ATP, histone H1 substrate
T2 construct: purchased Merck Millipore
T2 sequence (Q00535 whole entry): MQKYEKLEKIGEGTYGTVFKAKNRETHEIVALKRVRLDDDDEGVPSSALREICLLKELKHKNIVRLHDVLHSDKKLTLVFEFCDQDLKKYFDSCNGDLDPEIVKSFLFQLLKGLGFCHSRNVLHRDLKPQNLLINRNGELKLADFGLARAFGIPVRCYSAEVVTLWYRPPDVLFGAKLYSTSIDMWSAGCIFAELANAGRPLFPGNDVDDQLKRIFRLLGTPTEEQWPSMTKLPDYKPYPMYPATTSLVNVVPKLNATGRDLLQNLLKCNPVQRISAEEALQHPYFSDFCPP
T2 sequence (Q15078 99-307 partner limits assumed): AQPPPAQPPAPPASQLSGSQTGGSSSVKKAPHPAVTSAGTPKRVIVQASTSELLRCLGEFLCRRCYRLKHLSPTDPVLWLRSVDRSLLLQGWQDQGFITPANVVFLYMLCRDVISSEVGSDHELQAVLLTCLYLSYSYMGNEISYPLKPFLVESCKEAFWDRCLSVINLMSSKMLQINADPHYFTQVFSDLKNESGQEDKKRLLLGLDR
Method: as §2, §3

[8] = target: T3, CDK2/cyclinE (Homo sapiens, UniProt P24941); test: as above; assay type: biochemical; conditions: 10 uM ATP, histone H1 substrate
T3 construct: purchased Merck Millipore
Method: as §2, §3

[9] = target: T4, CDK6/cyclinD3 (Homo sapiens, UniProt Q00534); test: as above; assay type: biochemical; conditions: 10 uM ATP, histone H1 substrate; read-out: IC50 CDK6/cyclinD
T4 construct: purchased Merck Millipore
T4 sequence (Q00534 whole entry): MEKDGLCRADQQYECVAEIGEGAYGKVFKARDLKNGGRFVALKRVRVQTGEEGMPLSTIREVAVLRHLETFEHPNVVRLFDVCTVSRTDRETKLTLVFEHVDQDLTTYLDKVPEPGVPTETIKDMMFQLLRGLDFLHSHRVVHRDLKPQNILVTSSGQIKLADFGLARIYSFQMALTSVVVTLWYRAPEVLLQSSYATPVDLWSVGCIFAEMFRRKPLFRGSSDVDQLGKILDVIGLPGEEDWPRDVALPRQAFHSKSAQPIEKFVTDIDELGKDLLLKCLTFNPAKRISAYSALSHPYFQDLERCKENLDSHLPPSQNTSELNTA
T4 sequence (P30281 whole entry partner): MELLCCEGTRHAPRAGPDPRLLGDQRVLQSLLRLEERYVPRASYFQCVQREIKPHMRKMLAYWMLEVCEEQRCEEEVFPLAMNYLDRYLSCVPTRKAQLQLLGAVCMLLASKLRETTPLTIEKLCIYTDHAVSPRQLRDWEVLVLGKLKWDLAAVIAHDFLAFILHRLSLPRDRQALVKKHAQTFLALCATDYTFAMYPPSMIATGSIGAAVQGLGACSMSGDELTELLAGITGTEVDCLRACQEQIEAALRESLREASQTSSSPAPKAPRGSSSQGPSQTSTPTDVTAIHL
Method: as §2, §3

[10] = target: T5, CDK4/cyclinD1 (Homo sapiens, UniProt P11802); test: as above; assay type: biochemical; conditions: 10 uM ATP, Rb protein substrate; read-out: IC50 CDK4/cyclinD
T5 construct: purchased Signalchem (US)
T5 sequence (P11802 whole entry): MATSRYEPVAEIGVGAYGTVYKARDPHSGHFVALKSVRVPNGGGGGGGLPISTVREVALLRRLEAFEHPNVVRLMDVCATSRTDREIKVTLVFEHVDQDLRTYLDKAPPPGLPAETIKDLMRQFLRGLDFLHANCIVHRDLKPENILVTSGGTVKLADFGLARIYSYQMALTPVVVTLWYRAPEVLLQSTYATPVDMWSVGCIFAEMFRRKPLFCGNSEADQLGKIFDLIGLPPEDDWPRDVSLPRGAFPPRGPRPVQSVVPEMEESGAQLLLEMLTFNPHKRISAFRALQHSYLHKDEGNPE
T5 sequence (P24385 whole entry partner): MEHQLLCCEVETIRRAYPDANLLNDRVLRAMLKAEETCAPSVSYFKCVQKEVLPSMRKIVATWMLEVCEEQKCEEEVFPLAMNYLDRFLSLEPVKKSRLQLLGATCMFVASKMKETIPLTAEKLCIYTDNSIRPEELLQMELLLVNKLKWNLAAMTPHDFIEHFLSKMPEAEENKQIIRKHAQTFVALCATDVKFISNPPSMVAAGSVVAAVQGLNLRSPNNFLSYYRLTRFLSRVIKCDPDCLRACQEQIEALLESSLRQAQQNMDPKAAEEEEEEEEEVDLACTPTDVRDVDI
Method: as §2, §3

[11] = Blood brain barrier permeation; assay type: in vivo, ICR mice; conditions: mouse, 10 mg/kg, oral once 10 mg/kg; for concentration at 1 h / concentration at 4 h / Kp at 1 h / Kp at 4 h: male, ICR, po; for Kp at 1 h / Kp at 4 h: brain/plasma, read-out: B/P ratio
Method: Using 9-week-old male ICR mice, the compounds obtained in the above Examples were orally administered once at a dose of 10 mg/kg or 30 mg/kg, and after 1 hr and 4 hrs, the concentrations of the compounds in the blood and brain of the mice were determined. 3 ICR mice were assigned in each group. Plasma was separated from the blood obtained after sacrificing the mice at each time, the brain of the mice was extracted, and the […] was washed with PBS, followed by pulverizing the brain tissue. The blood was placed in a test tube containing heparin to prevent coagulation and then was centrifuged at 12,000 rpm at 4° C. for 3 min to give a supernatant from which plasma was collected. Brain tissue was weighed, and the brain was pulverized using Dounce's homogenizer after adding 3 times as much volume of PBS as the brain weight. Each of the obtained analytical samples was quantitatively analyzed using a tandem liquid chromatography-mass spectrometer (Tandem LC/MS/MS, API3000 & Agilent 1100 series). Brain permeability of a compound is expressed as a value obtained by dividing the concentration of the compound in the brain by the concentration of the compound in the plasma (B/P ratio), and when the B/P ratio is greater than 1, it means that the concentration in the brain is higher than the one in the blood.

[12] = tested on: A549; test: Inhibition of cancer cell proliferation (MTT); assay type: cell-based, human; conditions: Homo sapiens, A549, 72 h
Summary of the method: as §1

[13] = tested on: NCI-H23; test: Inhibition of cancer cell proliferation (MTT); assay type: cell-based, human; conditions: Homo sapiens, NCI-H23, 72 h
Summary of the method: as §1

[14] = tested on: Aβ (amyloid β protein); test: Inhibition of Aβ generation in B103/APP cells (Aβ42 ELISA); assay type: cell-based; conditions: Rattus norvegicus, 72 hrs
Method: The APP gene was inserted into B103 cells so that APP could be stably expressed and the resulting B103/APP cells were used to confirm inhibition of APP phosphorylation and Aβ generation.
Further, to confirm whether Aβ generation is reduced due to APP phosphorylation inhibition, 5×10^5 B103/APP cells were cultured in a 6-well plate for 16 hrs. Afterwards, the compounds obtained in the above Examples were added at 100 nM, 75 nM, 50 nM, 25 nM, 12.5 nM to a medium containing 500 ug/ml of G418 and 0.5% FBS and incubated for 72 hrs. After 72 hrs, the amount of Aβ was quantified using the medium by Human Aβ42 ELISA kit (Invitrogen).

[15] = tested on: Human colon carcinoma HCT116 cell line; test: Tumor growth inhibition in an animal model (HCT116 xenograft); assay type: in vivo, Balb/c nude mouse; conditions: 100 mpk, oral daily for 12 days
Method: Tumor size was measured twice a week using Caliper. […] A vehicle control was 20% propylene glycol (PG) and a positive control was Xeloda at 100 mg/kg.

[16] = brain, 1 hr, read-out: Concentration in the brain
[17] = plasma, 1 hr, read-out: Concentration in the plasma

| Compound | GI50 ([1]; Homo sapiens, HCT-116, 72 h) [nM] | GI50 ([3]; Homo sapiens, SH-SY5Y, 72 h) [nM] | GI50 ([4]; Homo sapiens, U-87 MG, 72 h) [nM] | GI50 ([5]; Homo sapiens, SK-N-SH, 72 h) [nM] | IC50 [6] [nM] | IC50 [7] [nM] | IC50 [8] [nM] | IC50 [9] [nM] | IC50 [10] [nM] | also measured |
| --- | --- | --- | --- | --- | --- | --- | --- | --- | --- | --- |
| CCCCCOC(=O)Nc1nc(=O)n([C@@H]2O[C@H](C)[C@@H](O)[C@H]2O)cc1F [Xeloda, reference compound] |  |  |  |  |  |  |  |  |  | Tumor size [15]: 994.7 ± 405.5 mm^3; tumor growth inhibition ([15]; vs vehicle control): 46% |
| Nc1nccc(-c2nc(-c3ccnc(N)c3F)ccc2O)n1 [Example 67, 2′-amino-6-(2-aminopyrimidin-4-yl)-3′-fluoro-[2,4′-bipyridin]-5-ol acetate] |  |  |  |  |  |  |  |  |  | GI50 ([1]; 72 hrs): 10 nM; GI50 ([3]; 72 hrs): 10 nM; GI50 ([4]; 72 hrs): 90 nM; GI50 ([5]; 72 hrs): 20 nM; concentration at 1 h [11, 16]: 55.1 ng/g; Kp at 1 h ([11]; 1 hr): 2.21; Kp at 4 h ([11]; 4 hrs): 3.97; concentration at 1 h [11, 17]: 24.9 ng/mL; Concentration in the brain ([11]; 4 hrs): 15.5 ng/g; Concentration in the plasma ([11]; 4 hrs): 3.9 ng/mL |
| Nc1nccc(-c2nc(-c3ccc(O)cc3F)ccc2O)n1 [Example 17, 2-(2-aminopyrimidin-4-yl)-6-(2-fluoro-4-hydroxyphenyl)pyridin-3-ol] | 610 | 290 | 1700 | 840 | 30.8 | 3.3 | 9.4 | 65.3 | > 200 |  |
| Nc1nccc(-c2nc(-c3ccc(O)c(F)c3)ccc2O)n1 [Example 19, 2-(2-aminopyrimidin-4-yl)-6-(3-fluoro-4-hydroxyphenyl)pyridin-3-ol] | 460 | 120 | 440 | 210 | 19.6 | 6.4 | 14.6 | 129 | > 200 | GI50 ([2]; Homo sapiens, T98G, 72 h): 2610 nM |
| Nc1nccc(-c2nc(-c3cccc(N)c3F)ccc2O)n1 [Example 18, 6-(3-amino-2-fluorophenyl)-2-(2-aminopyrimidin-4-yl)pyridin-3-ol] | 340 | 200 | 5860 | 780 | 26.8 | 6.1 | 10.7 | 181 | > 200 |  |

Further lines, with some results ahead:

| GI50 ([1]; Homo sapiens, HCT-116, 72 h) [nM] | GI50 ([3]; Homo sapiens, SH-SY5Y, 72 h) [nM] | GI50 ([4]; Homo sapiens, U-87 MG, 72 h) [nM] | GI50 ([5]; Homo sapiens, SK-N-SH, 72 h) [nM] | IC50 [6] [nM] | IC50 [7] [nM] | IC50 [8] [nM] | IC50 [9] [nM] | IC50 [10] [nM] | Compound | also measured |
| --- | --- | --- | --- | --- | --- | --- | --- | --- | --- | --- |
| 230 | 240 | 790 | 420 | 12.6 | 5.9 | 6.6 | 50.7 | > 200 | Nc1nccc(-c2nc(-c3ccncc3)ccc2O)n1 [Example 12, 6-(2-aminopyrimidin-4-yl)-[2,4′-bipyridin]-5-ol] | GI50 ([2]; Homo sapiens, T98G, 72 h): 1830 nM; concentration at 1 h [11, 16]: 71.1 ng/g; concentration at 4 h ([11]; brain, 4 hrs, read-out: Concentration in the brain): 9.1 ng/g; Kp at 1 h ([11]; 1 hr): 4.1; Kp at 4 h ([11]; 4 hrs): 3.54; concentration at 1 h [11, 17]: 17.3 ng/mL; concentration at 4 h ([11]; plasma, 4 hrs, read-out: Concentration in the plasma): 2.6 ng/mL |
| 200 | 90 | 630 | 200 | 11.6 | 2.3 | 6.4 | 44.8 | 287 | Nc1nccc(-c2nc(-c3ccc(O)cc3)ccc2O)n1 [Example 9, 2-(2-aminopyrimidin-4-yl)-6-(4-hydroxyphenyl)pyridin-3-ol] |  |
|  |  |  |  | 0.6 | 0.3 | 1 |  |  | Nc1nccc(-c2nc(-c3ccnc(N)c3F)ccc2O)n1 [Example 66] | GI50 ([1]; 72 hrs): 10 nM; GI50 ([2]; 72 hrs): 30 nM; GI50 [12]: 30 nM; GI50 [13]: 30 nM; GI50 ([4]; 72 hrs): 20 nM; inhibition at 0.0125 µM ([14]; 12.5 nM): 36.6%; inhibition at 0.025 µM ([14]; 25 nM): 46.6%; inhibition at 0.05 µM ([14]; 50 nM): 75.9%; inhibition at 0.075 µM ([14]; 75 nM): 100%; inhibition at 0.1 µM ([14]; 100 nM): 100%; B/P ratio ([11]; 1 hr): 2.44; Concentration in the brain ([11]; 1 hr): 80.5 ng/g; Concentration in the plasma ([11]; 1 hr): 32.9 ng/mL; B/P ratio ([11]; 4 hrs): 2.93; Concentration in the brain ([11]; 4 hrs): 58.9 ng/g; Concentration in the plasma ([11]; 4 hrs): 20.1 ng/mL |
| 140 | 110 | 890 | 310 | 6.1 | 1.5 | 4.5 | 73.6 | 403 | Nc1nccc(-c2nc(-c3ccnc(N)c3O)ccc2O)n1 [Example 21, 2′-amino-6-(2-aminopyrimidin-4-yl)-[2,4′-bipyridin]-3′,5-diol] |  |
